Laboratory results: patent publication US20250073226A1, “USE OF OPIOID FOR TREATMENT OF AUTISM SPECTRUM DISORDERS” (priority 2021, published 2025)
Values joined by “and” are separate entries in the source; they are usually repeats but may differ in a detail not shown here. Equal values may be shown once.

Columns and labels:
[1] = Pharmacokinetic: drug concentrations in plasma by LC-MS after subcutaneous administration; settings: ICR mice
[2] = system: mice; settings: Non-patent Document 28; cited from earlier work
[3] = system: model similar to this experiment; settings: 3 hours after administration; Horm Behav. 2017 November; 96:130-136; cited from earlier work
[4] = morphine hydrochloride 0.03 mg/kg s.c., Average value
[5] = morphine hydrochloride 0.03 mg/kg s.c., individual animals
[6] = morphine hydrochloride 0.1 mg/kg s.c., Average value
[7] = morphine hydrochloride 0.1 mg/kg s.c., individual animals
[8] = morphine hydrochloride 3 mg/kg s.c., Average value
[9] = morphine hydrochloride 3 mg/kg s.c., individual animals

SMILES: CN1CC[C@]23c4c5ccc(O)c4O[C@H]2[C@@H](O[C@@H]2O[C@H](C(=O)O)[C@@H](O)[C@H](O)[C@H]2O)C=C[C@H]3[C@H]1C5 [M6G]
- Plasma concentration M6G After 15 minutes [1, 4]: 13.2 ng/mL
- Plasma concentration M6G After 60 minutes [1, 4]: 5.09 ng/mL
- Plasma concentration M6G After 90 minutes [1, 4]: 0.488 ng/mL
- Plasma concentration M6G After 15 minutes [1, 5]: 10.4 ng/mL and 15.7 ng/mL and 13.6 ng/mL
- Plasma concentration M6G After 60 minutes [1, 5]: 6.28 ng/mL and 5.05 ng/mL and 3.95 ng/mL
- Plasma concentration M6G After 90 minutes [1, 5]: 0 ng/mL and 0.806 ng/mL and 0.657 ng/mL
- Plasma concentration M6G After 15 minutes [1, 6]: 44.6 ng/mL
- Plasma concentration M6G After 90 minutes [1, 6]: 3.41 ng/mL
- Plasma concentration M6G After 60 minutes ([1]; morphine hydrochloride 0.1 mg/kg s.c., Average value (N = 3 excluded as outlier)): 7.65 ng/mL
- Plasma concentration M6G After 15 minutes [1, 7]: 47.7 ng/mL and 35.3 ng/mL and 50.7 ng/mL
- Plasma concentration M6G After 60 minutes [1, 7]: 0 ng/mL and 15.3 ng/mL
- Plasma concentration M6G After 90 minutes [1, 7]: 2.98 ng/mL and 4.4 ng/mL and 2.85 ng/mL
- Plasma concentration M6G After 15 minutes [1, 8]: 1196 ng/mL
- Plasma concentration M6G After 60 minutes [1, 8]: 646 ng/mL
- Plasma concentration M6G After 90 minutes [1, 8]: 298 ng/mL
- Plasma concentration M6G After 15 minutes [1, 9]: 1250 ng/mL and 1340 ng/mL and 998 ng/mL
- Plasma concentration M6G After 60 minutes [1, 9]: 829 ng/mL and 580 ng/mL and 528 ng/mL
- Plasma concentration M6G After 90 minutes [1, 9]: 320 ng/mL and 240 ng/mL and 335 ng/mL

SMILES: CN1CC[C@]23c4c5ccc(O)c4O[C@H]2[C@@H](O)C=C[C@H]3[C@H]1C5 [morphine]
- dose at which the analgesic effect was maximum [2]: 8 mg/kg

SMILES: CC[C@H](C)[C@@H]1NC(=O)[C@H](Cc2ccc(O)cc2)NC(=O)[C@@H](N)CSSC[C@@H](C(=O)N2CCC[C@H]2C(=O)N[C@@H](CC(C)C)C(=O)NCC(N)=O)NC(=O)[C@H](CC(N)=O)NC(=O)[C@H](CCC(N)=O)NC1=O [oxytocin]
- improvement effect of social impairment, persistence [3]: the drug efficacy disappears
